Earlier results as cited in patent publication US20080031898A1, “Compositions and methods to increase the effect of a neurotoxin treatment” (priority 2004, published 2008).

Test system: BRAF(V600E) mutant xenografts
Settings: Solit et al, Nature 2006

## O=C(NOC[C@H](O)CO)c1ccc(F)c(F)c1Nc1ccc(I)cc1F [PD0325901]
  suppression of xenograft growth: completely suppresses the growth
